# According to EP2197279B1, “C10-SUBSTITUTED CAMPTOTHECIN ANALOGS” (BIONUMERIK PHARMACEUTICALS, INC., priority 2007, dated 2009):
# Read-outs that look alike come from different tables or passages of the source.
# Assays:
# [1] = tested on: advanced gastrointestinal cancer; details: cited from earlier work
# [2] = eight patients with measurable disease, 5-day courses at dose levels associated with toxicity; cited from earlier work
# [3] = cited from earlier work; for Non-Hematologic Toxicity No. of Patients With: Cystitis / Non-Hematologic Toxicity No. of Patients With: Diarrhea: 5-day Course; for Number of Patients with Non-Hematologic Toxicity: Cystitis / Number of Patients with Non-Hematologic Toxicity: Diarrhea: Single-Dose Method
# [4] = tested on: advanced malignant melanoma; details: fifteen patients, 90-360 mg/m^2 repeated every 2 weeks; cited from earlier work
# [5] = tested on: panel of over 20 human cancer cell lines; assay: In vitro studies on a panel of human cancer cell lines; format: cell-based; details: compared with Topotecan or SN-38
# human plasma proteins = assay: Percent of free camptothecin analogs in human plasma (dialysis, HPLC); format: in vitro ADME; details: 100 nM Compound Concentrations
# Method: Stocks of various camptothecin analogs were prepared in DMSO. […] Optimum HPLC detection conditions for each camptothecin analog were developed using traditional HPLC methods. Table VIII. Percent of Free Camptothecin Analogs in Human Plasma (100 nM Compound Concentrations)
# [6] = 5-Day Course (27 Patients Total), 4 wks
# [7] = 5-Day Course (27 Patients Total), 8 wks
# [8] = 5-Day Course (27 Patients Total), 12 wks
# [9] = Single-Dose Method (34 Patients Total), 3 wks
# [10] = Single-Dose Method (34 Patients Total), 6 wks
# [11] = Single-Dose Method (34 Patients Total), 9 wks
# [12] = Single-Dose Method (34 Patients Total), 12 wks
# [13] = 15 mg/m^2 X 5, 9 patients treated
# [14] = 17 mg/m^2 X 5, 5 patients treated
# [15] = 20 mg/m^2 X 5, 10 patients treated
smiles,measurement,setting,value
CC[C@@]1(O)C(=O)OCc2c1cc1n(c2=O)Cc2cc3ccccc3nc2-1 [CPT sodium],Objective Results: Improved,[1]; [6],1
same,Objective Results: Stable,[1]; [6],12
same,Objective Results: Worse,[1]; [6],14
same,Objective Results: Stable,[1]; [7],7
same,Objective Results: Worse,[1]; [7],20
same,Objective Results: Stable,[1]; [8],6
same,Objective Results: Worse,[1]; [8],21
same,Objective Results: Improved,"[1]; Single-Dose Method (34 Patients Total), 3 wks after start of therapy",4
same,Objective Results: Stable,[1]; [9],17
same,Objective Results: Worse,[1]; [9],13
same,Objective Results: Improved,[1]; [10],2
same,Objective Results: Stable,[1]; [10],11
same,Objective Results: Worse,[1]; [10],21
same,Objective Results: Improved,[1]; [11],2
same,Objective Results: Stable,[1]; [11],8
same,Objective Results: Worse,[1]; [11],24
same,Objective Results: Stable,[1]; [12],6
same,Objective Results: Worse,[1]; [12],28
same,patients with partial objective improvement,"[1]; after 2 months (8 or 9 weeks), of 61 patients",two
same,patients showing improvement,"[1]; at 3 months, of 61 patients",none
same,patients showing a 25%-50% response,"[1]; at 3 wks, only","*A total of 3 patients showed a 25%-50% response at 3 wks, only."
same,clinical benefit,[2],No clinical benefit
same,Cystitis,[3]; 5-Day Course (P<0.05),48 (P<0.05) % of 27 Patients
same,Non-Hematologic Toxicity No. of Patients With: Cystitis,"[3]; 11 mg/m^2 X 5, 2 patients treated",1
same,Non-Hematologic Toxicity No. of Patients With: Cystitis,[3]; [13],4
same,Non-Hematologic Toxicity No. of Patients With: Diarrhea,[3]; [13],1
same,Non-Hematologic Toxicity No. of Patients With: Cystitis,[3]; [14],2
same,Non-Hematologic Toxicity No. of Patients With: Diarrhea,[3]; [14],4
same,Non-Hematologic Toxicity No. of Patients With: Cystitis,[3]; [15],6
same,Non-Hematologic Toxicity No. of Patients With: Diarrhea,[3]; [15],4
same,Non-Hematologic Toxicity No. of Patients With: Diarrhea,"[3]; 22 mg/m^2 X 5, 1 patient treated",1
same,Cystitis,[3]; Single Dose,24 % of 34 Patients
same,Number of Patients with Non-Hematologic Toxicity: Cystitis,"[3]; 100 mg/m^2, 6 patients treated",2
same,Number of Patients with Non-Hematologic Toxicity: Cystitis,"[3]; 110 mg/m^2, 2 patients treated",1
same,Number of Patients with Non-Hematologic Toxicity: Diarrhea,"[3]; 110 mg/m^2, 2 patients treated",1
same,Number of Patients with Non-Hematologic Toxicity: Cystitis,"[3]; 120 mg/m^2, 7 patients treated",2
same,Number of Patients with Non-Hematologic Toxicity: Diarrhea,"[3]; 120 mg/m^2, 7 patients treated",4
same,Number of Patients with Non-Hematologic Toxicity: Cystitis,"[3]; 180 mg/m^2, 9 patients treated",3
same,Number of Patients with Non-Hematologic Toxicity: Diarrhea,"[3]; 180 mg/m^2, 9 patients treated",2
same,myelosuppression,[4],11 patients
same,patients with a 50% or greater decrease in tumor diameter,[4],None
"CC[C@@]1(O)C(=O)OCc2c1cc1n(c2=O)Cc2c-1nc1ccccc1c2CC[Si](C)(C)C [Karenitecin (BNP1350), (4S)-4-ethyl-4-hydroxy-11-[2-(trimethylsilyl)ethyl]-1H-pyrano[3':4':6,7]indolizino[1,2-b]quinoline-3,14(4H,12H)-dione]",antitumor potency,[5],significantly more potent
same,Percent of Free CPTs,human plasma proteins,1%
